Experiments:
Assay in all cases: Greenhouse herbicidal activity, post-emergence
Format in all cases: in vivo
Conditions in all cases: application rate 0.0156 or 0.0078 kg of a.i./ha
Abutilon theophrasti = test system: Abutilon theophrasti
Description: (§1) The culture containers used were plastic flower pots containing loamy sand with approximately 3.0% of humus as the substrate. The seeds of the test plants were sown separately for each species.
(§2) For the post-emergence treatment, the test plants were first grown to a plant height of 3 to 15 cm, depending on the growth form, and only then treated with the active ingredients which were suspended or emulsified in water. The test plants were either sown directly and grown in the same containers, or grown separately as seedlings and transplanted to the test containers a few days prior to treatment. The application rate for the post-emergence treatment was 0.0156 or 0.0078 kg of a.i. (active ingredient) per ha.
(§3) The plants were kept at from 10-25° C. or 20-35° C., depending on the species. The test period extended to 2-4 weeks. During this time, the plants were tended and their response to individual treatments was evaluated.
(§4) Evaluation was carried out using a scale from 0 to 100. 100 means no emergence of the plants, or complete destruction of at least the aerial parts, and 0 means no damage or normal course of growth.
(§5) The plants used for the greenhouse experiments were the following species: […]

Galium aparine = test system: Galium aparine
Description: as §1, §2, §3, §4, §5

Ipomoea subspecies = test system: Ipomoea subspecies
Description: as §1, §2, §3, §4, §5

Solanum nigrum = test system: Solanum nigrum
Description: as §1, §2, §3, §4, §5

COc1cc(-n2c(=O)cc(C(F)(F)F)n(N)c2=O)ccc1C#N [Compound No. I.02, 1-Amino-3-[4-cyano-3-methoxyphenyl]-6-trifluoromethyl-1,2,3,4-tetrahydropyrimidine-2,4-dione]
very effective: herbicidal action against Abutilon theophrasti (velvet leaf) (Abutilon theophrasti) | herbicidal action against Galium aparine (catchweed bedstraw) (Galium aparine) | herbicidal action against Ipomoea subspecies (morningglory) (Ipomoea subspecies) | herbicidal action against Solanum nigrum (black nightshade) (Solanum nigrum)

Reference: patent US20030181335A1, “Novel 3- (4-cyanophenyl) uracils” (priority 1995, published 2003)
